Earlier results as cited in US6610313B2, “Lysophospholipids composition with water solubility” (Doosan Corporation, priority 2001, dated 2003).

What was measured:
[1] = tested on: phospholipase D; details: Proc. Natl. Acad. Sci. USA, Vol.94, pp12717-12721
[2] = tested on: tomato; details: U.S. Pat. Nos. 5,220,341 and 5,126,155
[3] = LPE alone

For lysophosphatidylcholine [LPC], the “inhibition effect of phospholipase D” value [1] is given as “only a slight activity”.
In the case of lysophosphatidylethanolamine [LPE], the “aging of leaves and fruits of tomato” value [2] is given as “inhibits the aging of leaves and fruits of tomato”, the “storage time of tomato after harvesting” value [2] is given as “extends the storage time of tomato after harvesting” and the “inhibition effect of phospholipase D” value [1] is given as “most excellent”. For the same substance, the “water solubility of LPE itself” value [3] was “not water-soluble”.
For “lysophosphatidylglycerol [LPG, reference compound]”, the “inhibition effect of phospholipase D” value [1] is listed as “opposite”.
For “lysophosphatidylic acid [LPA, reference compound]”, the “inhibition effect of phospholipase D” value [1] is listed as “cannot inhibit”.
In the case of lysophosphatidylinositol [LPI], the “inhibition effect of phospholipase D” value [1] is listed as “gradually decreases”.
For “lysophosphatidylserine [LPS, reference compound]”, the “inhibition effect of phospholipase D” value [1] is listed as “opposite”.
